Laboratory results taken from patent US6403116B1, “Coenzyme Q10 formulation” (Triarco Inductries, Inc., priority 2000, dated 2002).
Where two headings read alike, the source gives them in different places.

What was measured:
[1] = Coenzyme Q10 added separately to aqueous solutions of the other composition ingredients; type: physicochemical; details: 5 mg coenzyme Q10 added to 100 mL of 1%, 2.5% and 5% aqueous solutions of all ingredients except coenzyme Q10
Method: To test this theory a 1%, 2.5% and 5% aqueous solutions of the all the composition ingredients except coenzyme Q10 were made in 100 mL volumetric flasks. A 5 mg aliquot of coenzyme Q10 was then separately added to each of the flasks and shaken.

[2] = Water solubility of coenzyme Q10 alone; type: physicochemical
[3] = as disclosed in WO 95/05164; cited from earlier work

COC1=C(OC)C(=O)C(C/C=C(\C)CC/C=C(\C)CC/C=C(\C)CC/C=C(\C)CC/C=C(\C)CC/C=C(\C)CC/C=C(\C)CC/C=C(\C)CC/C=C(\C)CCC=C(C)C)=C(C)C1=O [coenzyme Q10, 2,3-dimethoxy-5-methyl-6-decaprenyl-1,4-benzoquinone]
behaviour in ultra sound bath [1]: dispersed then settled to the bottom of the flask
dissolution or dispersion after shaking [1]: did not go into solution or form a dispersion
water solubility [2]: not water soluble at any level
water solubility [3]: practically insoluble in water
